The source of these data is patent EP1285918A1, “C7 Ester substituted taxanes as antitumor agents” (Florida State University Research Foundation, Inc., priority 2001, dated 2003).

The subject of one data set is HCT116. As to the kind of experiment: In Vitro cytotoxicity measured by the cell colony formation assay. In kind it is cell-based. Conditions: Homo sapiens, HCT-116; 72 h drug incubation, colonies counted after 7 days; concentration producing 50% inhibition of colony formation; read-out: IN VITRO ID 50 (nm) HCT116.
A further data set concerns SK-MES carcinoma. The data set can be described thus: In vivo evaluation against SK-MES human lung carcinoma xenograft, i.v. (Example 11). The method, then:
(§1) Two antitumor compounds were formulated for an i.v. dosing regime prepared in the following vehicle: 10% ethanol, 10% Cremophor and 80% isotonic saline. […] Other compounds were formulated similarly.
(§2) The MTDs for the antitumor compounds were calculated from earlier single dose data for mice receiving i.v. administration of these compounds. […] Vehicle control animals were dosed twice intravenously with half the total volume being given separated by one hour. The study was terminated at Day 60.
(§3) The results are summarized in Table 1 and include mean days of survival (MDS), number of toxic deaths, number of survivors, number of complete or partial responses, and number with stable disease. The mean days of survival is the number of days after which a neoplasm reached a size of 1.5 g and the animal was euthanized. A complete response is obtained if the tumor is not palpable at the end of the study. A partial response is obtained if the tumor shrinks to a size smaller than its size on Day 1 of the study.
(§4) A tumor scoring system was designed to provide a more quantitative ranking of efficacy (therapeutic potential) among the antitumor agents evaluated against the different human solid tumor xenografts. Each mouse in a study was given a score of from 1 to 10 at the end of the study. The scores can be summarized as follows:
(§5) The individual score for each mouse was averaged into a mean score for each treatment group. […]
(Xenograft models place foreign cells or tissue in a host animal.)

The test system of data set [1] is NCI-H1299 (H1299) carcinoma. Conditions: i.v. split dose qd x 1 at MTD (Taxol 36 mg/kg, 1393 72.1 mg/kg), 6 mice/group, Day 60. As for the experimental part:
as §1, §2, §3, §4, §5
The treatment protocol for the H1299 test was identical to the SK-MES test protocol. […]

The test system of data set [2] is MX-1 Human Breast Carcinoma Xenograft. Conditions: i.v. qd x 1 (Taxol 36 mg/kg split dose, 1393 72.6 mg/kg). As for the experimental part:
Antitumor compounds were formulated for an i.v. dosing regime (single i.v. bolus on qd x 1 schedule) prepared in the following vehicle: 5% ethanol, 5% Cremophor and 90% isotonic saline. […] Other compounds were similarly formulated. […] The dosing volume was 0.3 ml per 20 g mouse.
All vehicle control animals in the split dosing regimes were dosed twice intravenously with half the total volume being given separated by one hour. The study was terminated on Day 60.
The mean days of survival is the number of days after which a neoplasm reached a size of 2.0 g and the animal was euthanized. A complete response is obtained if the tumor is not palpable at the end of the study. A partial response is obtained if the tumor shrinks to a size smaller than its size on Day 1 of the study. […]

Data set [3] concerns SKMES Human Lung Carcinoma Xenograft. As for the experimental part: Antitumor compounds were formulated for oral administration over a wide dose range in a study to investigate the efficacy of this compound against the SKMES human lung cancer xenograft. The antitumor compounds were prepared in the following vehicle: 5% ethanol, 5% Cremophor and 90% isotonic saline.
Female Nu/Nu mice (6-8 weeks of age; implanted with 1 mm^3 SKMES lung carcinoma fragments in the flank) were sorted into treatment groups of six mice each. SKMES size ranges and group mean SKMES size ranges were 126-448 mg and 238-241 mg, respectively. […] Treatments were administered as a single oral bolus on Day 1, and the study was terminated on Day 60.
The mean days of survival is the number of days after which a SKMES neoplasm reached a size of 2.0 g and the animal was euthanized. A complete response is obtained if the tumor is not palpable at the end of the study. A partial response is obtained if the tumor shrinks to a size smaller than its size on Day 1 of the study. […]

For data set [4], the system named is MX-1 Human Breast Carcinoma Xenograft. Conditions: for Complete Responses / Partial Responses / Stable Disease / Toxic Deaths / Survivors / MDS (n): 6 mice/group, study end Day 60; for MDS (n): days until tumor reached 1.5 g. As for the experimental part:
The antitumor compounds were prepared in the following vehicle: 5% ethanol, 5% Cremophor and 90% isotonic saline.
Female Nu/Nu mice (12-13 weeks of age; implanted with 1 mm^3 MX-1 human breast carcinoma fragments in the flank) were sorted into treatment groups of six mice each (MX-1 tumor size ranges and group mean MX-1 tumor size ranges were 56-138 mg and 68-74 mg, respectively). […] All treatments were administered as a single oral bolus on Day 1, and the study was terminated on Day 60.
The mean days of survival is the number of days after which an MX-1 neoplasm reached a size of 1.5 g and the animal was euthanized. A complete response is obtained if the tumor is not palpable at the end of the study. A partial response is obtained if the tumor shrinks to a size smaller than its size on Day 1 of the study.

Where [5] appears, read: i.v. split dose qd x 1 at MTD (Taxol 36 mg/kg, 1393 72.1 mg/kg), 6 mice/group, Day 60.
Where [6] appears, read: 5.2 mg/kg single oral bolus Day 1, 6 mice/group, study end Day 60.
Where [7] appears, read: 10.4 mg/kg single oral bolus Day 1, 6 mice/group, study end Day 60.
Setting [8] is: 20.8 mg/kg single oral bolus Day 1, 6 mice/group, study end Day 60.
Setting [9] is: 42 mg/kg single oral bolus Day 1, 6 mice/group, study end Day 60.
The mark [10] stands for this setting: 73 mg/kg single oral bolus Day 1, 6 mice/group, study end Day 60.
Setting [11] is: 104 mg/kg single oral bolus Day 1, 6 mice/group, study end Day 60.
The mark [12] stands for this setting: 73.4 mg/kg single oral bolus Day 1.
Where [13] appears, read: 105 mg/kg single oral bolus Day 1.
[14] abbreviates: SKMES, 1418 single oral bolus 90 mg/kg (Group 4), 6 mice, Day 60.
[15] abbreviates: 70 mg/kg single oral bolus Day 1.
The mark [16] stands for this setting: 100 mg/kg single oral bolus Day 1.

Where two headings read alike, the source gives them in different places.

As to `CCC(=O)O[C@H]1C[C@H]2OC[C@@]2(OC(C)=O)[C@H]2[C@H](OC(=O)c3ccccc3)[C@]3(O)C[C@H](OC(=O)[C@H](O)[C@H](C=C(C)C)NC(=O)OC(C)(C)C)C(C)=C([C@@H](O)C(=O)[C@]12C)C3(C)C` [Compound 1351], the IC50 with HCT116 is less than 1 nM.
Regarding `CCC(=O)O[C@H]1C[C@H]2OC[C@@]2(OC(C)=O)[C@H]2[C@H](OC(=O)c3ccccc3)[C@]3(O)C[C@H](OC(=O)[C@H](O)[C@@H](NC(=O)OC(C)(C)C)c4ccco4)C(C)=C([C@@H](O)C(=O)[C@]12C)C3(C)C` [Compound 1393, 3'-Desphenyl-3'-(2-furyl)-7-propionyl taxotere], in the data set with SK-MES carcinoma (1393 72.1 mg/kg i.v.), the complete response rate was 100%. Also, the “days between which complete responses occurred” value in the data set with SK-MES carcinoma (1393 72.1 mg/kg i.v.) is 14 to 24 days. In addition, the “Complete Response” value in the data set with SK-MES carcinoma (setting [5]) is recorded as 6. Further, the “Partial Response” value in the data set with SK-MES carcinoma (setting [5]) came to 0; in data set [2] (6 mice/group, Day 60) it was 1. Further, the “Stable Disease” value is recorded as 0 in the data set on SK-MES carcinoma (setting [5]); 0 in data set [2] (6 mice/group, Day 60); 1 in data set [4] (setting [12]); 0 in data set [4] (setting [13]). In addition, the “Toxic Deaths” value in the data set with SK-MES carcinoma (setting [5]) was 0; in data set [1] it was 2; in data set [3] (setting [6]) it was 0; in data set [3] (setting [7]), 0; in data set [3] (setting [8]), 0; in data set [3] (setting [9]), 0. Further, the “Toxic Deaths” value in data set [3] (setting [10]) was determined as 0; in data set [3] (setting [11]), 0; in data set [4] (setting [12]) it was 1; in data set [4] (setting [13]), 0. Besides, the “Mean Score” value is recorded as 10+0 with SK-MES carcinoma (i.v. split dose qd x 1 at MTD (Taxol 36 mg/kg, 1393 72.1 mg/kg), tumor score 1 to 10 per mouse, group mean) and 9.8 ± 0.2 in data set [2] (tumor score 1 to 10, group mean). For the same molecule, in data set [3] (42 mg/kg single oral bolus Day 1, 6 mice/group, study end Day 60, days until tumor reached 2.0 g), the “MDS (n)” value is recorded as 23.2 ± 4.8 (4) days. In addition, the “% Total Response” value in data set [3] (setting [10]) and in data set [3] (setting [11]) was 83.3% each time. The MDS in data set [3] (SKMES, 1393 single oral bolus 42 mg/kg (Group 7), 2.0 g cut-off) came to 23.2 days. Besides, the figures for the “Complete Responses” value in data set [4] (setting [12]) and in data set [4] (setting [13]) were 4 and 5, respectively. Besides, the “Partial Responses” value in data set [4] (setting [12]) and in data set [4] (setting [13]) was 0 each time.
Take `CCC(=O)O[C@H]1C[C@H]2OC[C@@]2(OC(C)=O)[C@H]2[C@H](OC(=O)c3ccccc3)[C@]3(O)C[C@H](OC(=O)[C@H](O)[C@@H](NC(=O)OC(C)(C)C)c4cccs4)C(C)=C([C@@H](O)C(=O)[C@]12C)C3(C)C` [Compound 1418]: in the data set with HCT116, the IC50 was less than 1 nM. Further, in data set [3] (90 mg/kg single oral bolus Day 1, 6 mice/group, study end Day 60), the “Toxic Deaths” value amounted to 0. In data set [3] (SKMES, 1418 single oral bolus 90 mg/kg (Group 4)), the total response rate is on record as 100%. Further, in data set [3] (setting [14]), the Complete Responses result is “four” and the Partial Responses result is “two”. In addition, in data set [3] (po, 90 mg/kg), the “% Total Response” value is reported as 100%, the “Complete Responses” value turned out to be 4 and the “Partial Responses” value amounted to 2.
Consider `CC(=O)O[C@@]12CO[C@@H]1C[C@H](O)[C@@]1(C)C(=O)[C@H](O)C3=C(C)[C@@H](OC(=O)[C@H](O)[C@@H](NC(=O)OC(C)(C)C)c4ccccc4)C[C@@](O)([C@@H](OC(=O)c4ccccc4)[C@H]21)C3(C)C` [docetaxel, reference compound], for which the IC50 in the data set on HCT116 worked out at 0.6 nM. In data set [4] (setting [15]), the “Complete Responses” value is 0, the “Partial Responses” value came to 0, the “Stable Disease” value is given as 0 and the Survivors is given as 0. For the same molecule, in data set [4] (setting [15]), the “Toxic Deaths” value is on record as 0 and the “MDS (n)” value was 27.9 ± 4.3 (6) days. Also, in data set [4] (setting [16]), the “Complete Responses” value amounted to 0, the “Partial Responses” value was found to be 1, the “Stable Disease” value turned out to be 0 and the Survivors was determined as 1. Besides, in data set [4] (setting [16]), the “Toxic Deaths” value is listed as 0 and the “MDS (n)” value is given as 27.1 ± 3.5 (5) days. Further, the Partial Response entry in data set [4] (MX-1, single oral bolus, Taxol 40 and 28 mg/kg groups together, Taxotere 100 and 70 mg/kg groups together, Day 60) was “One”.
With `CCC(=O)OC1CC2OCC2(OC(C)=O)C2C(OC(=O)c3ccccc3)C3(O)CC(OC(=O)C(O)C(NC(=O)OC(C)(C)C)c4ccco4)C(C)=C(C(O)C(=O)C12C)C3(C)C` (stereo not shown) [Compound 1393, 3'-Desphenyl-3'-(2-furyl)-7-propionyl taxotere], the “Complete Response” value in the data set on SK-MES carcinoma (setting [5]) was “six”. For the same molecule, the Survivors in data set [1] was 4; in data set [2] (6 mice/group, Day 60) it was 6; in data set [3] (setting [6]), 1; in data set [3] (setting [7]), 1; in data set [3] (setting [8]), 0; in data set [3] (setting [9]), 2. In addition, the Survivors is listed as 5 in data set [3] (setting [10]), 6 in data set [3] (setting [11]), 5 in data set [4] (setting [12]) and 5 in data set [4] (setting [13]).
As to `CCC(=O)O[C@H]1C[C@H]2OC[C@@]2(OC(C)=O)[C@H]2[C@H](OC(=O)c3ccccc3)[C@]3(O)C[C@H](OC(=O)[C@H](O)[C@@H](NC(=O)OC(C)(C)C)c4ccoc4)C(C)=C([C@@H](O)C(=O)[C@]12C)C3(C)C` [Compound 1401], the IC50 with HCT116 is less than 1 nM.
